Test results: PMC3242598, “Phase I study of BIBF 1120 with docetaxel and prednisone in metastatic chemo-naive hormone-refractory prostate cancer patients” (British Journal of Cancer, 2011)

System: patients with metastatic, chemo-naive, hormone-refractory prostate cancer (HRPC)
Assay: Phase I safety analysis: adverse events graded by CTCAE version 3.0
Format: in vivo, human
Conditions: for Dyspepsia: patients with drug-related AE / Dysphonia: patients with drug-related AE / Elevated ALT: patients with drug-related AE / Elevated AST: patients with drug-related AE / Elevated GGT: patients with drug-related AE / Elevated alkaline phosphatase: patients with drug-related AE / Epistasis: patients with drug-related AE / Headache: patients with drug-related AE / Hot flush: patients with drug-related AE / Mucosal inflammation: patients with drug-related AE / Muscle spasm: patients with drug-related AE / Nausea: patients with drug-related AE / Neuropathy: patients with drug-related AE / Pyrexia: patients with drug-related AE / Rash: patients with drug-related AE / Upper abdominal pain: patients with drug-related AE / Vomiting: patients with drug-related AE / Weight decrease: patients with drug-related AE / Ageusia: patients with drug-related AE / Alopecia: patients with drug-related AE / Anorexia: patients with drug-related AE / Asthenia: patients with drug-related AE / Constipation: patients with drug-related AE / Diarrhoea: patients with drug-related AE / Dysgeusia: patients with drug-related AE: all courses
Experimental: On days 2–21 (21-day cycle), patients took an oral dose of BIBF 1120 twice daily. Patients were instructed to swallow BIBF 1120 with water at the same time every day to ensure a dose interval of ∼12 h. On day 2 of treatment cycles (TCs) 1 and 2, patients only took the morning dose of BIBF 1120, omitting the evening dose to allow PK evaluation. All patients were premedicated with oral corticosteroids (dexamethasone 8 mg per os or methylprednisolone 32 mg per os, at 12 h and 1 h before docetaxel infusion) and subsequently took 5 mg prednisone oral BID throughout the trial. On day 1 of each TC, patients received an IV infusion of 75 mg m^−2 docetaxel administered over 1 h.
All patients who received at least one dose of BIBF 1120 or docetaxel were assessed during the safety analysis. Intensity of AEs was graded according to Common Terminology Criteria for Adverse Events (CTCAE) version 3.0. Objective response was defined as a PSA decline ⩾50% from the baseline value over two consecutive courses and/or tumour response according to RECIST criteria ([Therasse et al, 2000]).

[1] = 200 mg BID (n=3) + docetaxel/prednisone, all grades
[2] = 250 mg BID (n=12) + docetaxel/prednisone, Gr 3/4
[3] = 250 mg BID (n=12) + docetaxel/prednisone, all grades
[4] = Total, all dose levels (n=21) + docetaxel/prednisone, Gr 3/4
[5] = Total, all dose levels (n=21) + docetaxel/prednisone, all grades
[6] = during TC 1, all dose levels 100–250 mg BID + docetaxel/prednisone
[7] = during TC 1, all dose levels + docetaxel/prednisone

COC(=O)c1ccc2c(c1)NC(=O)/C2=C(\Nc1ccc(N(C)C(=O)CN2CCN(C)CC2)cc1)c1ccccc1 [BIBF 1120]
1: Epistasis: patients with drug-related AE [1] | Hot flush: patients with drug-related AE [1] | Ageusia: patients with drug-related AE [3] | Dyspepsia: patients with drug-related AE [3] | Dysphonia: patients with drug-related AE [3] | Hot flush: patients with drug-related AE [3] | Neuropathy: patients with drug-related AE [3] | Pyrexia: patients with drug-related AE [3] | Weight decrease: patients with drug-related AE [3]
One: Patients with grade 3 diarrhoea (200 mg BID + docetaxel/prednisone, TC 1)
3: Anorexia: patients with drug-related AE [3] | Elevated AST: patients with drug-related AE [3] | Elevated GGT: patients with drug-related AE [3] | Epistasis: patients with drug-related AE [3] | Upper abdominal pain: patients with drug-related AE [3] | Vomiting: patients with drug-related AE [3] | Constipation: patients with drug-related AE [5] | Dysgeusia: patients with drug-related AE [5] | Elevated AST: patients with drug-related AE [5] | Elevated GGT: patients with drug-related AE [5]
six: Patients with CTCAE grade 3/4 liver enzyme (transaminase) elevations, of twelve (250 mg BID, any TC, based on laboratory values)
4: Alopecia: patients with drug-related AE [3] | Elevated ALT: patients with drug-related AE [3] | Alopecia: patients with drug-related AE [5] | Dysphonia: patients with drug-related AE [5] | Elevated ALT: patients with drug-related AE [5] | Upper abdominal pain: patients with drug-related AE [5]
23.8%: Alopecia, frequency of AE irrespective of relatedness (all TCs and doses) | Alopecia, frequency of drug-related AE [6] | Patients with AE severity grade 3 [7]
8: Diarrhoea: patients with drug-related AE [3]
6: Anorexia: patients with drug-related AE [5]
0: Dyspepsia: patients with drug-related AE [1] | Elevated ALT: patients with drug-related AE [1] | Elevated AST: patients with drug-related AE [1] | Elevated GGT: patients with drug-related AE [1] | Elevated alkaline phosphatase: patients with drug-related AE [1] | Headache: patients with drug-related AE [1] | Mucosal inflammation: patients with drug-related AE [1] | Muscle spasm: patients with drug-related AE [1] | Neuropathy: patients with drug-related AE [1] | Pyrexia: patients with drug-related AE [1] | Rash: patients with drug-related AE [1] | Upper abdominal pain: patients with drug-related AE [1] | Weight decrease: patients with drug-related AE [1] | Ageusia: patients with drug-related AE [2] | Alopecia: patients with drug-related AE [2] | Anorexia: patients with drug-related AE [2] | Asthenia: patients with drug-related AE [2] | Constipation: patients with drug-related AE [2] | Diarrhoea: patients with drug-related AE [2] | Dysgeusia: patients with drug-related AE [2] | Dyspepsia: patients with drug-related AE [2] | Dysphonia: patients with drug-related AE [2] | Elevated alkaline phosphatase: patients with drug-related AE [2] | Epistasis: patients with drug-related AE [2] | Headache: patients with drug-related AE [2] | Hot flush: patients with drug-related AE [2] | Mucosal inflammation: patients with drug-related AE [2] | Muscle spasm: patients with drug-related AE [2] | Nausea: patients with drug-related AE [2] | Neuropathy: patients with drug-related AE [2] | Pyrexia: patients with drug-related AE [2] | Rash: patients with drug-related AE [2] | Upper abdominal pain: patients with drug-related AE [2] | Vomiting: patients with drug-related AE [2] | Weight decrease: patients with drug-related AE [2] | Headache: patients with drug-related AE [3] | Ageusia: patients with drug-related AE [4] | Alopecia: patients with drug-related AE [4] | Anorexia: patients with drug-related AE [4] | Asthenia: patients with drug-related AE [4] | Constipation: patients with drug-related AE [4] | Dysgeusia: patients with drug-related AE [4] | Dyspepsia: patients with drug-related AE [4] | Dysphonia: patients with drug-related AE [4] | Elevated alkaline phosphatase: patients with drug-related AE [4] | Epistasis: patients with drug-related AE [4] | Headache: patients with drug-related AE [4] | Hot flush: patients with drug-related AE [4] | Mucosal inflammation: patients with drug-related AE [4] | Muscle spasm: patients with drug-related AE [4] | Nausea: patients with drug-related AE [4] | Neuropathy: patients with drug-related AE [4] | Pyrexia: patients with drug-related AE [4] | Rash: patients with drug-related AE [4] | Upper abdominal pain: patients with drug-related AE [4] | Vomiting: patients with drug-related AE [4] | Weight decrease: patients with drug-related AE [4]
50%: Patients with CTCAE grade 3/4 increases in hepatic enzymes (250 mg BID, entire treatment period)
13: Diarrhoea: patients with drug-related AE [5]
5: Nausea: patients with drug-related AE [3] | Epistasis: patients with drug-related AE [5] | Vomiting: patients with drug-related AE [5]
14.3%: Patients with AE severity grade 4 (neutropenia only, considered related to docetaxel) [7]
85.7%: Diarrhoea, frequency of AE irrespective of relatedness (all TCs and doses)
95.2%: Asthenia, frequency of AE irrespective of relatedness (all TCs and doses)
28.6%: Nausea, frequency of AE irrespective of relatedness (all TCs and doses) | Nausea, frequency of drug-related AE [6] | Vomiting, frequency of drug-related AE [6] | Patients with AE severity grade 1 [7] | Patients with AE severity grade 2 [7]
10: Asthenia: patients with drug-related AE [3]
9: Nausea: patients with drug-related AE [5]
61.9%: Asthenia, frequency of drug-related AE [6]
2: Dysphonia: patients with drug-related AE [1] | Nausea: patients with drug-related AE [1] | Vomiting: patients with drug-related AE [1] | Elevated ALT: patients with drug-related AE [2] | Elevated AST: patients with drug-related AE [2] | Elevated GGT: patients with drug-related AE [2] | Constipation: patients with drug-related AE [3] | Dysgeusia: patients with drug-related AE [3] | Elevated alkaline phosphatase: patients with drug-related AE [3] | Mucosal inflammation: patients with drug-related AE [3] | Muscle spasm: patients with drug-related AE [3] | Rash: patients with drug-related AE [3] | Diarrhoea: patients with drug-related AE [4] | Elevated ALT: patients with drug-related AE [4] | Elevated AST: patients with drug-related AE [4] | Elevated GGT: patients with drug-related AE [4] | Ageusia: patients with drug-related AE [5] | Dyspepsia: patients with drug-related AE [5] | Elevated alkaline phosphatase: patients with drug-related AE [5] | Headache: patients with drug-related AE [5] | Hot flush: patients with drug-related AE [5] | Mucosal inflammation: patients with drug-related AE [5] | Muscle spasm: patients with drug-related AE [5] | Neuropathy: patients with drug-related AE [5] | Pyrexia: patients with drug-related AE [5] | Rash: patients with drug-related AE [5] | Weight decrease: patients with drug-related AE [5]
14: Asthenia: patients with drug-related AE [5]
